Drawing on patent publication US8586505B2 (SDS Biotech K. K., priority 2009, dated 2013), this text covers pest or weed control for 41 molecules.

Common to all, as to assay type: in vivo
Assay [1] deals with Sphaerotheca fuliginea. Nature of the assay: Test of examining control effect on Sphaerotheca fuliginea (potted cucumber plants). The note with it: Podosphaera fuliginea, 336 h; 10% wettable powder adjusted to 125 ppm, 15 ml/pot sprayed on potted cucumber plants one day before spray inoculation; assessed after 14 days in greenhouse; read-out: Determination of control effect (preventive value) on Sphaerotheca fuliginea. The method, boiled down:
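Control effect rated high at preventive value 60–100% and low below 60%, from lesion area relative to untreated plants 14 days after spray inoculation with S. fuliginea (1.0×10^5 cells/ml). Compound applied at 125 ppm as wettable-powder spray one day before inoculation, on 2nd-leaf-stage Sagamihanjiro cucumber.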

The subject of assay [2] is Phytophthora infestans. Kind of assay: whole plant or invertebrate. The conditions noted are these: in Solanum lycopersicum, 96 h, read-out: Determination of control effect (preventive value).
The subject of assay [3] is Pseudoperonospora cubensis. Nature of the assay: Test of examining control effect on Pseudoperonospora cubensis (potted cucumber plants). The note with it: 96 h, 10% wettable powder adjusted to 125 ppm, 15 ml/pot sprayed on potted cucumber plants one day before spray inoculation, assessed after 1 day wet chamber and 3 days greenhouse, read-out: Determination of control effect (preventive value) on Pseudoperonospora cubensis. The method, boiled down: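 Preventive treatment: 125 ppm sample agent solution (from 10% wettable powder) sprayed at 15 ml/pot on 2.5-leaf Sagamihanjiro cucumbers, then P. cubensis inoculated next day at 1.0×10^4 cells/ml. Incubation was 1 day wet at 21° C plus 3 days greenhouse. Lesion area rate compared with untreated gives preventive value (≥60% high).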

`N#CCc1ccccc1C#CCCNc1ncnc2ccccc12` [compound 147]: the pest or weed control at 125 µg/mL in assay [1] and in assay [3] was 60 to 100% throughout. In assay [2], the pest or weed control at 125 ppm is 60 to 100%.

As to `COCc1ccccc1C#CCCNc1ncnc2c(C(F)(F)F)cccc12` [compound 323], the pest or weed control at 125 µg/mL in assay [1] and in assay [3] was 60 to 100% in each case. For the same molecule, the pest or weed control at 125 ppm in assay [2] lay within 60 to 100%.

As to `C(#Cc1ccccc1C1OCCO1)CCNc1ncnc2ccccc12` [compound 155], the pest or weed control at 125 µg/mL lay within 0 to 60% in assay [1] and 60 to 100% in assay [3]. Also, the pest or weed control at 125 ppm in assay [2] fell in the range of 0 to 60%.

Consider `Fc1ccc(F)c(C#CCCNc2ncnc3ccccc23)c1` [compound 163], for which the pest or weed control at 125 µg/mL in assay [1] and in assay [3] was 60 to 100% throughout. In addition, in assay [2], the pest or weed control at 125 ppm is 60 to 100%.

`Cc1cccc(C#CCCNc2ncnc3ccccc23)n1` [compound 200]: the pest or weed control at 125 µg/mL in assay [1] and in assay [3] was 60 to 100% in each case. Further, the pest or weed control at 125 ppm in assay [2] lay in the range of 60 to 100%.

As to `Cc1nc(C#CCCNc2ncnc3ccccc23)cs1` [compound 211], the pest or weed control at 125 µg/mL in assay [1] and in assay [3] was 60 to 100% each time. Besides, the pest or weed control at 125 ppm in assay [2] lay in the range of 60 to 100%.

Turning to `CC(CC#Cc1ccc(Cl)cc1C(F)(F)F)Nc1ncnc2ccc(F)cc12` (stereo not drawn) [compound 345], the pest or weed control at 125 µg/mL in assay [1] and in assay [3] was 60 to 100% in each case. For the same molecule, the pest or weed control at 125 ppm in assay [2] was 0 to 60%.

Regarding `CN(C)c1ccc(C#CCCNc2ncnc3ccccc23)cc1` [compound 159], the pest or weed control at 125 µg/mL in assay [1] and in assay [3] was 60 to 100% in each case. In addition, the pest or weed control at 125 ppm in assay [2] lay in the range of 0 to 60%.

`CCC(CC#Cc1ccc(F)cc1)Nc1ncnc2ccccc12` (stereo not drawn) [compound 294]: the pest or weed control at 125 µg/mL in assay [1] and in assay [3] was 60 to 100% throughout. Also, the pest or weed control at 125 ppm in assay [2] fell in the range of 0 to 60%.

As for `Clc1ncnc(NCCC#Cc2ccccc2)c1-c1ccccc1` [compound 373], the pest or weed control at 125 µg/mL in assay [1] and in assay [3] was 0 to 60% in each case. Also, the pest or weed control at 125 ppm in assay [2] is 0 to 60%.

On to `FC(F)(F)c1cc(Cl)ccc1C#CCCNc1ncnc2ccccc12` [compound 178], for which the pest or weed control at 125 µg/mL in assay [1] and in assay [3] was 60 to 100% in each case. The pest or weed control at 125 ppm in assay [2] lay within 60 to 100%.

With `Cc1c(Cl)ncnc1NCCC#Cc1ccccc1C(F)(F)F` [compound 364], the pest or weed control at 125 µg/mL in assay [1] and in assay [3] was 60 to 100% in each case. Also, the pest or weed control at 125 ppm in assay [2] lay within 0 to 60%.

For `COCc1ccccc1C#CCCNc1ncnc2ccc(F)cc12` [compound 317], the pest or weed control at 125 µg/mL in assay [1] and in assay [3] was 60 to 100% in each case. Also, the pest or weed control at 125 ppm in assay [2] is 60 to 100%.

In the case of `COC(OC)c1ccccc1C#CCCNc1ncnc2ccccc12` [compound 149], the pest or weed control at 125 µg/mL in assay [1] and in assay [3] was 0 to 60% throughout. In addition, in assay [2], the pest or weed control at 125 ppm was 0 to 60%.

With `CC(CC#Cc1ccc(F)cc1CO)Nc1ncnc2sccc12` (stereo not drawn) [compound 244], the pest or weed control at 125 µg/mL in assay [1] and in assay [3] was 60 to 100% each time. The pest or weed control at 125 ppm in assay [2] lay in the range of 60 to 100%.

For `C[Si](C)(C)C#CCCNc1ncnc2ccccc12` [compound 87], the pest or weed control at 125 µg/mL in assay [1] and in assay [3] was 60 to 100% throughout. Further, the pest or weed control at 125 ppm in assay [2] is 60 to 100%.

As for `CC(CC#Cc1ccc(S(C)(=O)=O)cc1Cl)Nc1ncnc2sccc12` (stereo not drawn) [compound 256], the pest or weed control at 125 µg/mL in assay [1] and in assay [3] was 60 to 100% each time. Also, the pest or weed control at 125 ppm in assay [2] lay within 60 to 100%.

Turning to `Cn1cc(C#CCCNc2ncnc3ccccc23)ccc1=O` [compound 203], the pest or weed control at 125 µg/mL in assay [1] fell in the range of 0 to 60%; in assay [3], 60 to 100%. In assay [2], the pest or weed control at 125 ppm fell in the range of 0 to 60%.

On to `Cc1cccc2c(NC(C)CC#Cc3ccc(Cl)cc3C(F)(F)F)ncnc12` (stereo not drawn) [compound 354], for which the pest or weed control at 125 µg/mL in assay [1] and in assay [3] was 60 to 100% in each case. In assay [2], the pest or weed control at 125 ppm was 0 to 60%.

Consider `CC(CC#Cc1ccc(F)cc1)Nc1ncnc2ccccc12` (stereo not drawn) [compound 271], for which the pest or weed control at 125 µg/mL in assay [1] and in assay [3] was 60 to 100% throughout. Moreover, in assay [2], the pest or weed control at 125 ppm was in the range of 60 to 100%.

On to `CN(C)S(=O)(=O)c1ccc(C#CCCNc2ncnc3ccccc23)cc1` [compound 122], for which the pest or weed control at 125 µg/mL in assay [1] was in the range of 0 to 60%; in assay [3] it was 60 to 100%. Moreover, the pest or weed control at 125 ppm in assay [2] lay in the range of 0 to 60%.

In the case of `COCc1cc(F)ccc1C#CCCNc1ncnc2ccccc12` [compound 139], the pest or weed control at 125 µg/mL in assay [1] and in assay [3] was 60 to 100% in each case. The pest or weed control at 125 ppm in assay [2] fell in the range of 60 to 100%.

For `FC(F)(F)c1ccc(C#CCCNc2ncnc3sccc23)cc1` [compound 27], the pest or weed control at 125 µg/mL in assay [1] and in assay [3] was 60 to 100% each time. In addition, in assay [2], the pest or weed control at 125 ppm lay in the range of 0 to 60%.

On to `Clc1ccccc1C#CCCNc1ncnc2ccccc12` [compound 97], for which the pest or weed control at 125 µg/mL in assay [1] and in assay [3] was 60 to 100% throughout. Besides, the pest or weed control at 125 ppm in assay [2] is 60 to 100%.

`C#CCCNc1ncnc2ccccc12` [compound 86]: the pest or weed control at 125 µg/mL in assay [1] and in assay [3] was 60 to 100% each time. The pest or weed control at 125 ppm in assay [2] lay in the range of 0 to 60%.

Consider `Fc1cccc(C#CCCNc2ncnc3sccc23)c1` [compound 12], for which the pest or weed control at 125 µg/mL in assay [1] and in assay [3] was 60 to 100% throughout. In addition, the pest or weed control at 125 ppm in assay [2] fell in the range of 0 to 60%.

Take `CC(CC#Cc1ccccc1)Nc1ncnc(C(C)F)c1I` (stereo not drawn) [compound 381]: the pest or weed control at 125 µg/mL in assay [1] and in assay [3] was 60 to 100% throughout. For the same molecule, the pest or weed control at 125 ppm in assay [2] was in the range of 60 to 100%.

For `CC(CC#Cc1ccccc1S(C)(=O)=O)Nc1ncnc2sccc12` (stereo not drawn) [compound 237], the pest or weed control at 125 µg/mL in assay [1] and in assay [3] was 60 to 100% each time. Besides, in assay [2], the pest or weed control at 125 ppm was in the range of 60 to 100%.

Regarding `O=[N+]([O-])c1c(Cl)ncnc1NCCC#Cc1ccccc1C(F)(F)F` [compound 370], the pest or weed control at 125 µg/mL in assay [1] and in assay [3] was 0 to 60% each time. Moreover, in assay [2], the pest or weed control at 125 ppm fell in the range of 0 to 60%.

On to `C=CC(CC#Cc1ccccc1)Nc1ncnc2ccccc12` (stereo not drawn) [compound 296], for which the pest or weed control at 125 µg/mL in assay [1] and in assay [3] was 60 to 100% throughout. For the same molecule, the pest or weed control at 125 ppm in assay [2] lay within 60 to 100%.

For the molecule `COCc1ccccc1C#CCCNc1ncnc2c(C)cc(Cl)cc12` [compound 327], the pest or weed control at 125 µg/mL in assay [1] was 0 to 60%; in assay [3] it was 60 to 100%. In addition, the pest or weed control at 125 ppm in assay [2] lay in the range of 0 to 60%.

For `CS(=O)(=O)Nc1ccc(C#CCCNc2ncnc3ccccc23)cc1` [compound 123], the pest or weed control at 125 µg/mL in assay [1] fell in the range of 0 to 60%; in assay [3], 60 to 100%. Besides, the pest or weed control at 125 ppm in assay [2] was in the range of 0 to 60%.

Regarding `COc1ccc(C#CCC(C)Nc2ncnc3ccccc23)c(C(F)(F)F)c1` (stereo not drawn) [compound 287], the pest or weed control at 125 µg/mL in assay [1] and in assay [3] was 60 to 100% in each case. Besides, in assay [2], the pest or weed control at 125 ppm was 0 to 60%.

`CC(CC#Cc1ccc(C(F)(F)F)cc1)Nc1ncnc2ccccc12` (stereo not drawn) [compound 275]: the pest or weed control at 125 µg/mL in assay [1] and in assay [3] was 60 to 100% each time. In addition, the pest or weed control at 125 ppm in assay [2] is 60 to 100%.

In the case of `COCc1ccccc1C#CCCNc1ncnc2ccc(OCc3ccccc3)cc12` [compound 340], the pest or weed control at 125 µg/mL was in the range of 0 to 60% in assay [1] and 60 to 100% in assay [3]. Also, the pest or weed control at 125 ppm in assay [2] fell in the range of 0 to 60%.

As for `C(#Cc1cccc2ncccc12)CCNc1ncnc2ccccc12` [compound 191], the pest or weed control at 125 µg/mL in assay [1] lay within 0 to 60%; in assay [3], 60 to 100%. The pest or weed control at 125 ppm in assay [2] was in the range of 0 to 60%.

For the molecule `C(#CC1=CCCCC1)CCNc1ncnc2ccccc12` [compound 94], the pest or weed control at 125 µg/mL in assay [1] and in assay [3] was 60 to 100% throughout. In assay [2], the pest or weed control at 125 ppm lay within 0 to 60%.

For the molecule `COCc1cc(C)ccc1C#CCCNc1ncnc(C)c1Cl` [compound 361], the pest or weed control at 125 µg/mL in assay [1] and in assay [3] was 60 to 100% each time. In assay [2], the pest or weed control at 125 ppm lay within 60 to 100%.

As for `COc1ccccc1Oc1nc(C#CCCNc2ncnc3ccccc23)cs1` [compound 215], the pest or weed control at 125 µg/mL in assay [1] and in assay [3] was 60 to 100% throughout. Further, the pest or weed control at 125 ppm in assay [2] was 60 to 100%.

For `CC(CC#Cc1ccc(Cl)cc1C(F)(F)F)Nc1ncnc(C(F)(F)F)c1Cl` (stereo not drawn) [compound 388], the pest or weed control at 125 µg/mL in assay [1] and in assay [3] was 60 to 100% in each case. Also, the pest or weed control at 125 ppm in assay [2] lay in the range of 0 to 60%.

As for `C(#Cc1ccc2ncccc2c1)CCNc1ncnc2ccccc12` [compound 190], the pest or weed control at 125 µg/mL lay within 0 to 60% in assay [1] and 60 to 100% in assay [3]. For the same molecule, in assay [2], the pest or weed control at 125 ppm was 0 to 60%.
